# Measurements as given in US20260356856A1, “KRAS G12S AND G12C INHIBITORS” (MIRATI THERAPEUTICS, INC., priority 2023, published 2026).
# Legend:
# [1] = target: T1, KRas-mediated phosphorylation of ERK in MKN1 cells (Homo sapiens, UniProt P01116); experiment: Inhibition of KRas-mediated phosphorylation of ERK (HTRF), MKN1 cells; format: cell-based; conditions: MKN1 cells (KRas WT); HTRF pERK; 3 h incubation
# T1 construct: pERK HTRF read-out
# Experimental: Inhibition of KRas Phosphorylation of ERK (HTRF) by Exemplary Compounds of Formula (Ia) or (Ib)
# Cisbio HTRF Advanced pERK Assay Catalog #64AERPEH • Cells: MKN1, PSN1 • Procedure: • 1. Day 1: Seed 6,000 cells/well −25 μl/well in 384-well white solid bottom plate; RPM1_10% FBS. Incubate overnight at 37 °C/5% CO2. • 2.
# [2] = target: T2, KRas-mediated phosphorylation of ERK in H358 cells (Homo sapiens, UniProt P01116, G12C); experiment: Inhibition of KRas-mediated phosphorylation of ERK (HTRF), H358 cells; format: cell-based; conditions: HTRF pERK, 3 h incubation
# T2 construct: pERK HTRF read-out
# KRas WT = target: T3, KRas WT (Homo sapiens, UniProt P01116); experiment: KRas binding assay, TR-FRET displacement of Cy5 labelled tracer; conditions: 60-minute incubation at room temperature, 1% DMSO, pH 7.5
# T3 construct: Biotinylated KRas (corresponding to amino acids 1-169, produced at Accelegan Inc.); biotin (biotinylated); purchased Accelegan Inc
# Procedure, shortened: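 Biotinylated KRas (residues 1-169) was incubated with tracer, terbium-streptavidin and compound at 1% DMSO final in 50 mM HEPES pH 7.5 containing 5 mM MgCl2, 0.005% Tween-20 and 1 mM DTT. The plate was read after 60 min at room temperature, and percent-of-control data were fit to a 4-parameter IC50 equation.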
# KRas G12C = target: T4, KRas G12C (Homo sapiens, UniProt P01116, G12C); experiment: as above; conditions: 60-minute incubation at room temperature, 1% DMSO, pH 7.5
# T4 construct: Biotinylated KRas (corresponding to amino acids 1-169, produced at Accelegan Inc.); biotin (biotinylated); purchased Accelegan Inc
# Procedure, shortened: (§1)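 IC50 came from fitting POC values with a four-parameter equation. Signal was read after one hour at room temperature. Protein was biotin-tagged KRas 1-169 captured by terbium streptavidin, with compound in 1% DMSO (final).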
# KRas G12S = target: T5, KRas G12S (Homo sapiens, UniProt P01116, G12S); experiment: as above; conditions: 60-minute incubation at room temperature, 1% DMSO, pH 7.5
# T5 construct: Biotinylated KRas (corresponding to amino acids 1-169, produced at Accelegan Inc.); biotin (biotinylated); purchased Accelegan Inc
# Procedure, shortened: as §1
# [3] = target: T6, KRas-mediated phosphorylation of ERK in A549 cells (Homo sapiens, UniProt P01116, G12S); experiment: Inhibition of KRas-mediated phosphorylation of ERK (HTRF), A549 cells; format: cell-based; conditions: HTRF pERK, 3 h incubation
# T6 construct: pERK HTRF read-out
# T6 sequence (P01116 1-188 isoform P01116-2 G12S): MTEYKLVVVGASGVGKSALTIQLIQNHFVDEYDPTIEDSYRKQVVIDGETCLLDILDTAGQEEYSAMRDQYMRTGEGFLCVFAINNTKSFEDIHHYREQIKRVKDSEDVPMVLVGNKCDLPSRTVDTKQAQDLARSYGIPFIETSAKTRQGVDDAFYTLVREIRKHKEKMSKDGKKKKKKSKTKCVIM
# T1 sequence (P01116 1-188 isoform P01116-2): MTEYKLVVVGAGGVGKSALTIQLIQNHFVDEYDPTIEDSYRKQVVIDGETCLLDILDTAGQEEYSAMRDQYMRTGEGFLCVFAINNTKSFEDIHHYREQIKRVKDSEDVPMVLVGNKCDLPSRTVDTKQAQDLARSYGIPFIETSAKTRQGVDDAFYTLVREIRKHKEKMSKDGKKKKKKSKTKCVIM
# T4 sequence (P01116 1-169 isoform P01116-2 G12C): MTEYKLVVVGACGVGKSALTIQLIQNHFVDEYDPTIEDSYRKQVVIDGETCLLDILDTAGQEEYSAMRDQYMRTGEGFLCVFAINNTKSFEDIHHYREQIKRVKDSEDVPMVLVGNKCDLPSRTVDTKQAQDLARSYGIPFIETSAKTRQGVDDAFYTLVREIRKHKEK
# T5 sequence (P01116 1-169 isoform P01116-2 G12S): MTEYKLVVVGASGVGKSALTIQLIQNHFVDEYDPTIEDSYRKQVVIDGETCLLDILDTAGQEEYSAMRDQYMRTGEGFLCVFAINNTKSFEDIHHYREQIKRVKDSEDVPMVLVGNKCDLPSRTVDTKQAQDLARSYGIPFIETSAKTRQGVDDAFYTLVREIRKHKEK
# T2 sequence (P01116 1-188 isoform P01116-2 G12C): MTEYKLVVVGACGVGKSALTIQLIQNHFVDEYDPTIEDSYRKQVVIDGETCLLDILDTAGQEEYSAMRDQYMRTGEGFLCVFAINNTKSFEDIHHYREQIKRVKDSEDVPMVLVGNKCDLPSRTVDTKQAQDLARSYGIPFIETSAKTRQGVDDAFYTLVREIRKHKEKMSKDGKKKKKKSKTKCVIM
# T3 sequence (P01116 1-169 isoform P01116-2): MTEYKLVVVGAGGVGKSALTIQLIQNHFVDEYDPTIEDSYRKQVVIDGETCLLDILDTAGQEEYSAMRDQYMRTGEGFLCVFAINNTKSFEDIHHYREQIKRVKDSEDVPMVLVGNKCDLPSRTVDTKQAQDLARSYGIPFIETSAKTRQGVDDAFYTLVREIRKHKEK
Compound,IC50 [1] [nM],IC50 [2] [nM],IC50 (KRas WT) [nM],IC50 (KRas G12C) [nM],IC50 (KRas G12S) [nM],IC50 [3] [nM]
"CCc1c(F)ccc2cc(O)cc(-c3ncc4c(N5CCCCC(C(=O)n6ccc(C)n6)C5)nc(OC[C@@]56CCCN5C[C@H](F)C6)nc4c3F)c12 (stereo partly drawn) [Example 68, (1-(7-(8-ethyl-7-fluoro-3-hydroxynaphthalen-1-yl)-8-fluoro-2-(((2R,7aS)-2-fluorotetrahydro-1H-pyrrolizin-7a(5H)-yl)methoxy)pyrido[4,3-d]pyrimidin-4-yl)azepan-3-yl)(3-methyl-1H-pyrazol-1-yl)methanone]",12,34,10,5,6,77
"N#Cc1c(N)sc2c(F)ccc(-c3c(Cl)cc4c(N5CCC[C@H](C(=O)n6ccc(C7CC7)n6)CC5)nc(OC[C@@]56CCCN5C[C@H](F)C6)nc4c3F)c12 [Example 216, 2-amino-4-(6-chloro-4-((S)-4-(3-cyclopropyl-1H-pyrazole-1-carbonyl)azepan-1-yl)-8-fluoro-2-(((2R,7aS)-2-fluorotetrahydro-1H-pyrrolizin-7a(5H)-yl)methoxy)quinazolin-7-yl)-7-fluorobenzo[b]thiophene-3-carbonitrile]",71,5,22,4,3,2
"Cc1ccn(C(=O)C2C[C@@H]3CN(c4nc(OC[C@@]56CCCN5C[C@H](F)C6)nc5c(F)c(-c6ccc(F)c7sc(N)c(C#N)c67)c(Cl)cc45)C[C@@H]3C2)n1 (stereo partly drawn) [Example 180, 2-amino-4-(6-chloro-8-fluoro-2-(((2R,7aS)-2-fluorotetrahydro-1H-pyrrolizin-7a(5H)-yl)methoxy)-4-((3aR,6aS)-5-(3-methyl-1H-pyrazole-1-carbonyl)hexahydrocyclopenta[c]pyrrol-2 (1H)-yl)quinazolin-7-yl)-7-fluorobenzo[b]thiophene-3-carbonitrile]",441,232,67,26,4,27
"Cc1ccn(C(=O)[C@@H]2C[C@H]2CNc2nc(OC[C@@]34CCCN3C[C@H](F)C4)nc3c(F)c(-c4ccc(F)c5sc(N)c(C#N)c45)c(Cl)cc23)n1 [Example 181, 2-amino-4-(6-chloro-8-fluoro-2-(((2R,7aS)-2-fluorotetrahydro-1H-pyrrolizin-7a(5H)-yl)methoxy)-4-((((trans)-2-(3-methyl-1H-pyrazole-1-carbonyl)cyclopropyl)methyl)amino)quinazolin-7-yl)-7-fluorobenzo[b]thiophene-3-carbonitrile]",111,71,17,10,9,15
"Cc1ccn(C(=O)C2CCN(c3nc(OC[C@@]45CCCN4C[C@H](F)C5)nc4c(F)c(-c5ccc(F)c6sc(N)c(C#N)c56)c(Cl)cc34)C2)n1 (stereo partly drawn) [Example 139, 2-amino-4-(6-chloro-8-fluoro-2-(((2R,7aS)-2-fluorotetrahydro-1H-pyrrolizin-7a(5H)-yl)methoxy)-4-(3-(3-methyl-1H-pyrazole-1-carbonyl)pyrrolidin-1-yl)quinazolin-7-yl)-7-fluorobenzo[b]thiophene-3-carbonitrile]",1210,412,16,5,5,46
"CCc1c(F)ccc2cc(O)cc(-c3ncc4c(N(C)CCNC(=O)n5ccnn5)nc(OC[C@@]56CCCN5C[C@H](F)C6)nc4c3F)c12 [Example 250, N-(2-((7-(8-ethyl-7-fluoro-3-hydroxynaphthalen-1-yl)-8-fluoro-2-(((2R,7aS)-2-fluorotetrahydro-1H-pyrrolizin-7a(5H)-yl)methoxy)pyrido[4,3-d]pyrimidin-4-yl)(methyl)amino)ethyl)-1H-1,2,3-triazole-1-carboxamide]",357,8,37,< 2,34,1680
"CN(C(=O)CCCN(C)c1nc(OC[C@@]23CCCN2C[C@H](F)C3)nc2c(F)c(-c3ccc(F)c4sc(N)c(C#N)c34)c(Cl)cc12)C(=O)c1ccn(C)n1 [Example 292, N-(4-((7-(2-amino-3-cyano-7-fluorobenzo[b]thiophen-4-yl)-6-chloro-8-fluoro-2-(((2R,7aS)-2-fluorotetrahydro-1H-pyrrolizin-7a(5H)-yl)methoxy)quinazolin-4-yl)(methyl)amino)butanoyl)-N, 1-dimethyl-1H-pyrazole-3-carboxamide]",80,30,11,3,5,27
"CN(CCCC(=O)Oc1ccccc1F)c1nc(OC[C@@]23CCCN2C[C@H](F)C3)nc2c(F)c(-c3ccc(F)c4sc(N)c(C#N)c34)c(Cl)cc12 [Example 218, 2-fluorophenyl 4-((7-(2-amino-3-cyano-7-fluorobenzo[b]thiophen-4-yl)-6-chloro-8-fluoro-2-(((2R,7aS)-2-fluorotetrahydro-1H-pyrrolizin-7a(5H)-yl)methoxy)quinazolin-4-yl)(methyl)amino)butanoate]",322,15,83,3,16,175
"CC(=O)N(C)C(=O)C(C)CCN(C)c1nc(OC[C@@]23CCCN2C[C@H](F)C3)nc2c(F)c(-c3ccc(F)c4sc(N)c(C#N)c34)c(Cl)cc12 (stereo partly drawn) [Example 304, N-acetyl-4-((7-(2-amino-3-cyano-7-fluorobenzo[b]thiophen-4-yl)-6-chloro-8-fluoro-2-(((2R,7aS)-2-fluorotetrahydro-1H-pyrrolizin-7a(5H)-yl)methoxy)quinazolin-4-yl)(methyl)amino)-N,2-dimethylbutanamide]",60,3,12,5,4,3
"CN(CCCC(=O)Nc1ccncc1)c1nc(OC[C@@]23CCCN2C[C@H](F)C3)nc2c(F)c(-c3ccc(F)c4sc(N)c(C#N)c34)c(Cl)cc12 [Example 269, 4-((7-(2-amino-3-cyano-7-fluorobenzo[b]thiophen-4-yl)-6-chloro-8-fluoro-2-(((2R,7aS)-2-fluorotetrahydro-1H-pyrrolizin-7a(5H)-yl)methoxy)quinazolin-4-yl)(methyl)amino)-N-(pyridin-4-yl) butanamide]",388,411,9,4,6,1180
"N#Cc1c(N)sc2c(F)ccc(-c3c(Cl)cc4c(N5CCN(S(=O)(=O)n6ccnn6)CC5)nc(OC[C@@]56CCCN5C[C@H](F)C6)nc4c3F)c12 [Example 252, 4-(4-(4-((1H-1,2,3-triazol-1-yl)sulfonyl)piperazin-1-yl)-6-chloro-8-fluoro-2-(((2R,7aS)-2-fluorotetrahydro-1H-pyrrolizin-7a(5H)-yl)methoxy)quinazolin-7-yl)-2-amino-7-fluorobenzo[b]thiophene-3-carbonitrile]",156,391,39,48,77,806
"CN(C)CCc1ccn(C(=O)C2CCCN(c3nc(OC[C@@]45CCCN4C[C@H](F)C5)nc4c(F)c(-c5ccc(F)c6sc(N)c(C#N)c56)c(Cl)cc34)CC2)n1 (stereo partly drawn) [Example 219, 2-amino-4-(6-chloro-4-(4-(3-(2-(dimethylamino)ethyl)-1H-pyrazole-1-carbonyl)azepan-1-yl)-8-fluoro-2-(((2R,7aS)-2-fluorotetrahydro-1H-pyrrolizin-7a(5H)-yl)methoxy)quinazolin-7-yl)-7-fluorobenzo[b]thiophene-3-carbonitrile]",431,16,10,3,4,12
"CCc1c(F)ccc2cc(O)cc(-c3ncc4c(NC[C@@H]5C[C@H]5C(=O)N(C)C(C)=O)nc(OC[C@@]56CCCN5C[C@H](F)C6)nc4c3F)c12 [Example 281, trans-N-acetyl-2-(((7-(8-ethyl-7-fluoro-3-hydroxynaphthalen-1-yl)-8-fluoro-2-(((2R,7aS)-2-fluorotetrahydro-1H-pyrrolizin-7a(5H)-yl)methoxy)pyrido[4,3-d]pyrimidin-4-yl)amino)methyl)-N-methylcyclopropane-1-carboxamide]",41,198,8,9,10,243
